Reference: PMC7984888, “Inhibitory Activity of Pyrroloisoxazolidine Derivatives against Chlamydia trachomatis” (BioMed Research International, 2021)

Key:
Assay type in all cases: cell-based
[1] = tested on: Chlamydia trachomatis serovar L2 (strain 434/Bu); test: Infectious progeny inhibition assay, C. trachomatis L2; conditions: Chlamydia trachomatis, HeLa, generation of infectious progeny EBs in HeLa cells, MOI 0.2, 36 hpi, 1 to 32 μM; read-out: IC50 (μM) Mean (95% confidence interval) Ct L2
Description: (§1) Chlamydia trachomatis serovars D (strain UW-3/CX) and L2 (strain 434/Bu) were purchased from ATCC. HeLa cells purchased from ATCC were routinely cultured in DMEM supplemented with 10% heat-inactivated FBS (Sigma-Aldrich) and 10 μg/mL gentamicin at 37°C in a humidified atmosphere of 5% and were used for chlamydial propagation and cell culture experiments. EBs were purified by Renografin density gradient and stored in sucrose-phosphate-glutamate (SPG) buffer at -80°C [20]. A mouse polyclonal anti-MoPn (C. muridarum strain Nigg II) antibody, which was produced in our laboratory and cross-reacting with C. trachomatis D and L2, was used as a primary antibody for both stains detection.
(§2) Cell monolayers seeded onto coverslips in a 24-well plate were infected with C. trachomatis at a multiplicity of infection (MOI) of 0.2 inclusion-forming units (IFU) per cell. Unless noted, individual compound was added into culture medium at indicated concentrations simultaneously at the time of inoculation. 0.5% DMSO was used as negative control and 11.25 μM tetracycline (Sigma-Aldrich) as positive control. For C. trachomatis D, an additional centrifugation (900 × g at room temperature for 1 h) was applied to facilitate the infection. At 36 hours postinfection (hpi), infected cells were fixed by precooled methanol and then subjected to sequential staining processed with a primary antibody and a FITC-conjugated secondary antibody. Evans blue was used as cytoplasm counterstain. Images were shot by an Olympus IX51 fluorescence microscope.
(§3) Cells monolayers seeded in 48-well plate were infected and treated with chemicals as above. After incubation for 36 hours, infected cells were washed twice, scraped off, and lysed by sonication to release the infectious progeny EBs. Then the lysates were used to reinfect fresh cell monolayers grown in 96-well plate following 1 : 10 serial dilution. The inclusion counts were obtained by immunofluorescence staining as above to calculate the number of infectious progeny EBs in each sample. Percent inhibition was calculated based on EB counts in compound-treated samples relative to DMSO-treated negative control.
(§4) Data from the three independent experiments were presented as mean ± standard deviations (SD) and were subjected to pairwise Student's t-tests. p < 0.05 and p < 0.01 are considered statistically significant and statistically highly significant, respectively. The IC50 values, defined as the concentration of compound at which the generation of infectious progeny EBs was reduced by 50% relative to negative control, were calculated by nonlinear regression from percent inhibition data using the GraphPad Prism 5 software, and presented as mean (95% confidence interval).

[2] = WST-1 cell viability; conditions: human, uninfected HeLa cells, WST-1, relative to DMSO control as 100%
Description: Uninfected HeLa cells were cultured with 32 μM (the highest concentration used in antichlamydial analysis) of individual compound or 0.5% DMSO for 48 h. After 10 μL of WST-1 reagent was added, cells were incubated for an additional 1 h, and absorbance at 450 nm was recorded. The viability of compound-treated cells was calculated by the absorbance relative to that of DMSO control setting as 100% [22].

[3] = tested on: Chlamydia trachomatis serovar D (strain UW-3/CX); test: Infectious progeny inhibition assay, C. trachomatis D; conditions: Chlamydia trachomatis, HeLa, generation of infectious progeny EBs in HeLa cells, MOI 0.2, 36 hpi, 1 to 32 μM; read-out: IC50 (μM) Mean (95% confidence interval) Ct D
Description: as §1, §2, §3, §4

Row | SMILES | IC50 [1] [µM] | viability at 48 h, 32 µM [2] [%] | IC50 [3] [µM]
1 | Brc1ccc(C2C3CC(c4ccccc4)N(c4ccccc4)C3ON2c2ccccc2)cc1 (stereo not drawn) [Compound 3] | 8.67 | 99.9 | 20.9
2 | COc1ccc(N2C(c3ccccc3)CC3C(c4ccccc4Br)N(c4ccccc4)OC32)cc1 (stereo not drawn) [Compound 4] | 11.2 | 97.5 | > 32
3 | COc1ccc(N2C(c3ccccc3)CC3C(c4cccc(Br)c4)N(c4ccccc4)OC32)cc1 (stereo not drawn) [Compound 5] | 15.5 | 95.2 | > 32
4 | COc1ccc(N2C(c3ccccc3)CC3C(c4ccc(Br)cc4)N(c4ccccc4)OC32)cc1 (stereo not drawn) [Compound 6] | 9.08 | ~90 | 16.9
5 | Brc1ccccc1C1C2CC(c3ccccc3)N(c3ccccc3)C2ON1c1ccccc1 (stereo not drawn) [Compound 7] | 19.1 | ~90 | > 32
6 | Brc1ccccc1C1c2ccccc3cccc2N2C(c4ccccc4)CC3C2ON1c1ccccc1 (stereo not drawn) [Compound 8] | 25.4 | 102 | 28.6
7 | Fc1ccc(N2C(C3CCCCC3)CC3C(c4ccccc4Br)N(c4ccccc4)OC32)cc1 (stereo not drawn) [Compound 9] | > 32 | 96.5 | 19.6
8 | Fc1ccc(N2C(c3cccs3)CC3C(c4ccccc4Br)N(c4ccccc4)OC32)cc1 (stereo not drawn) [Compound 10] | 17.4 | ~90 | 15.4
9 | Cc1ccc(C2CC3C(c4ccccc4Br)N(c4ccccc4)OC3N2c2ccccc2)cc1 (stereo not drawn) [Compound 11] | > 32 | 99.7 | 23.5
10 | O=[N+]([O-])c1ccc(C2CC3C(c4ccccc4Br)N(c4ccccc4)OC3N2c2ccccc2)cc1 (stereo not drawn) [Compound 12] | 17.5 | 104 | 12.5
11 | Cc1ccc(N2C(c3ccccc3)CC3C(c4ccccc4Br)N(c4ccccc4)OC32)cc1 (stereo not drawn) [Compound 13] | > 32 | 95.7 | 16.3
12 | Brc1ccccc1C1C2CC(/C=C/c3ccccc3)N(c3ccccc3)C2ON1c1ccccc1 (stereo not drawn) [Compound 14] | 16.8 | 98 | 16.3
13 | O=[N+]([O-])c1ccc(C2CC3C(c4ccccc4Cl)N(c4ccccc4)OC3N2c2ccccc2)cc1 (stereo not drawn) [Compound 15] | 9.77 | 104 | 12.2
14 | Cc1ccc(C2CC3C(c4ccccc4)N(c4ccccc4)OC3N2c2ccc(C)cc2)cc1 (stereo not drawn) [Compound 16] | 13.5 | 96.5 | 5.93
15 | Brc1ccccc1C1C2CC(c3ccccc3Br)N(c3ccccc3)C2ON1c1ccccc1 (stereo not drawn) [Compound 17] | > 32 | 114 | 27.6
16 | Fc1ccc(N2C(c3cccc4ccccc34)CC3C(c4ccccc4Br)N(c4ccccc4)OC32)cc1 (stereo not drawn) [Compound 18] | > 32 | 106 | 21
